Measurements published in paper PMC11494886, “Discovery and design of molecular glue enhancers of CDK12–DDB1 interactions for targeted degradation of cyclin K” (RSC Chemical Biology, 2024).

How the values were obtained:
Cdk12/CycK and DDB1ΔB = molecular target: T1, Cdk12/CycK and DDB1ΔB (Homo sapiens, UniProt Q16531+Q9NYV4, DEL396-705); test: Analytical size-exclusion chromatography of DDB1ΔB and Cdk12/CycK; assay type: binding; settings: 20 μM proteins, 60 μM compound, vs DMSO and THZ531
T1 construct: the Cdk12 (714–1063)/CycK (1–267) complex and the DDB1ΔB protein; made in house; host or cells: Sf9 insect cells (MultiBacTurbo)
T1 sequence (Q9NYV4 714-1063, stated change not applied): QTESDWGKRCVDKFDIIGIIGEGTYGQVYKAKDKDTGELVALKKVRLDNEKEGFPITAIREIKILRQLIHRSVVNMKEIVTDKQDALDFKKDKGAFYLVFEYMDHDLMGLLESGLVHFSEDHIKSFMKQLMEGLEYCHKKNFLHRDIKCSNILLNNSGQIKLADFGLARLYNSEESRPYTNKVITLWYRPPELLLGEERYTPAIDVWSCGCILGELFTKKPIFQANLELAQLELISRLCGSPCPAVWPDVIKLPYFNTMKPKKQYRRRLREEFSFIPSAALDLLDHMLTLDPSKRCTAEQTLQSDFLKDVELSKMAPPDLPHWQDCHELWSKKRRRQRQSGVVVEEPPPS
T1 sequence (O75909 1-267 partner limits assumed): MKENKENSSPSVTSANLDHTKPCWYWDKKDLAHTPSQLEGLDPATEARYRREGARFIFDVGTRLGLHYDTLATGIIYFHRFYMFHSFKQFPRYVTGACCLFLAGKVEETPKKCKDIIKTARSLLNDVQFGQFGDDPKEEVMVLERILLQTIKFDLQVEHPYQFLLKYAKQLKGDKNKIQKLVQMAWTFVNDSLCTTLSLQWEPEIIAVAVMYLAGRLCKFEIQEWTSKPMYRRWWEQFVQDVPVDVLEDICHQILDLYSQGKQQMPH
T1 sequence (Q16531 with tags, fused parts or gaps DEL396-705): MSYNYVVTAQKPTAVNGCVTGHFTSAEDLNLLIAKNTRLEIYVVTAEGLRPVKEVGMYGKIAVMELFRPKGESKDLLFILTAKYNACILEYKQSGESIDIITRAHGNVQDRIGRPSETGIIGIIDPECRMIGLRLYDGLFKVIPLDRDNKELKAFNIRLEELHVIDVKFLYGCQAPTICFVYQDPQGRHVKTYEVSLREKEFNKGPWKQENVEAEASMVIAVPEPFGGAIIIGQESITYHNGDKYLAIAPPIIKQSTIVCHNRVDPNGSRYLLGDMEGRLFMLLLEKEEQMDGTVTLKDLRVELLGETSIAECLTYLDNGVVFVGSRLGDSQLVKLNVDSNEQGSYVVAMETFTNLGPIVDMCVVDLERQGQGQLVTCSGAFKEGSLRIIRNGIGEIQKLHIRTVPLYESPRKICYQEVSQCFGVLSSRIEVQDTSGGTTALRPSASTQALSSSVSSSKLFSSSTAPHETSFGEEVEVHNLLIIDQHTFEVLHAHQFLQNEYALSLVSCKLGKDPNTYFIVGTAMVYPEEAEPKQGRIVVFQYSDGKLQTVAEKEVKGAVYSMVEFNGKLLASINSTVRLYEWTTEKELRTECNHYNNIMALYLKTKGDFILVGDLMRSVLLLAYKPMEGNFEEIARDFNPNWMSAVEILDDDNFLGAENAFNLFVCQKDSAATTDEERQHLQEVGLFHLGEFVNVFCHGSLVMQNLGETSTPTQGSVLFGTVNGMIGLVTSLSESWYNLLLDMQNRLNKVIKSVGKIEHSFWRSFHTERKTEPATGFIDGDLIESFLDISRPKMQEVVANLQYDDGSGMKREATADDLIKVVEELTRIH
Method: Analytical size-exclusion chromatography was employed to investigate compound-induced protein–protein interactions between the heterodimeric Cdk12 (714–1063)/CycK (1–267) complex and the RING E3 ligase-associated adaptor protein DDB1ΔB. The analysis was conducted on an Agilent 1260 Infinity II HPLC system (Agilent Technologies), coupled with a Superdex 200 Increase 3.2/300 column (Cytiva), pre-equilibrated in Cdk12 SEC buffer (20 mM Hepes pH 7.8, 400 mM NaCl, 1 mM TCEP) supplemented with 1 g L^−1 carboxymethyl-dextran. Purified proteins, combined in equimolar ratios (20 μM Cdk12/CycK and DDB1ΔB, respectively) were supplemented with 3-fold molar excess of small molecular compounds. The resulting protein mixtures were diluted to a final volume of 25 μL using the kinases SEC-buffer ensuring a final DMSO concentration of 2%, followed by an incubation period of 10 min. Upon injection into the analytical system, the chromatography was conducted at a controlled flow rate of 0.05 mL min^−1, with protein absorbance monitored at 280 nm wavelength. Peak fractions were collected drop by drop and subsequently subjected to analysis via dynamic light scattering (DLS) to assess their size distribution, along with SDS-PAGE analysis to determine the composition of the protein complex.

cyclin K = test: Immunoblot of cyclin K levels in MDA-MB-231 cells; assay type: cell-based, human; settings: SR-4835 500 nM, SR-4784 1-2 μM 2 hours, SR-4784-PAP 2 μM 2 hours
Method: THZ531 was used as a negative control as it is known to make a covalent bond with Cys1039 in a C-terminal extension of the kinase domain, thereby preventing this helix-loop-helix (HLH)-like fold from binding in a cleft between the DDB1 BPA and BPC domains (Fig. 1B, right panels). […] An immunofluorescence-based assay developed for visualizing loss of nuclear cyclin K also confirmed the above observations (Fig. 1H and Fig. S1, ESI ^†).
Total cell lysates were prepared using RIPA lysis buffer (Millipore Sigma) supplemented with protease and phosphatase inhibitors (Roche). Protein concentrations were estimated using the BCA protein assay kit (Pierce, Thermo Fisher Scientific). Equal amounts of proteins were separated using NuPAGE 4–12% Bis-Tris gels (Thermo Fisher Scientific). For CLICK chemistry pulldown experiments, proteins in the eluates were resolved using 3–8% Tris–acetate gels (Thermo Fisher Scientific). Proteins were transferred to nitrocellulose membranes using NuPAGE transfer buffer (Thermo Fisher Scientific). Membranes were blocked in LI-COR blocking buffer for 1 hour at room temperature and then probed with primary antibodies diluted in the same blocking buffer overnight at 4 °C. To detect the primary antibodies, membranes were incubated with IR-680 or IR-800 conjugated secondary antibodies (LI-COR) diluted in LI-COR blocking buffer at room temperature for 1 hour. Washes with 0.01% Tween-phosphate buffer were performed after primary and secondary antibody incubation steps. Signals from the membrane were recorded by scanning on a LI-COR Odyssey imager. Bands were quantified using Image Studio Lite (LI-COR Biosciences) or the ImageJ program.
To visualize the degradation of cyclin K, total cell lysates were subjected to SDS-PAGE and western blotting.

CDK12/cyclin K + DDB1 = molecular target: T2, CDK12/cyclin K + DDB1 (Homo sapiens, UniProt Q16531+Q9NYV4, DEL396-705); test: Microscale thermophoresis, ternary complex formation; assay type: binding; settings: MST, labeled DDB1ΔBPB + CDK12/cyclin K
T2 construct: The kinase domain of human CDK12 (Uniprot: Q9NYV4; a.a; 715–1050); GST (N, cleaved yes); made in house; host or cells: Spodoptera frugiperda SF9 insect cells (Bac-to-Bac); CDK12/cyclin K co-infected with S. cerevisiae CAK1
T2 sequence (Q16531 with tags, fused parts or gaps DEL396-705): as above
T2 sequence (Q9NYV4 715-1050, stated change not applied): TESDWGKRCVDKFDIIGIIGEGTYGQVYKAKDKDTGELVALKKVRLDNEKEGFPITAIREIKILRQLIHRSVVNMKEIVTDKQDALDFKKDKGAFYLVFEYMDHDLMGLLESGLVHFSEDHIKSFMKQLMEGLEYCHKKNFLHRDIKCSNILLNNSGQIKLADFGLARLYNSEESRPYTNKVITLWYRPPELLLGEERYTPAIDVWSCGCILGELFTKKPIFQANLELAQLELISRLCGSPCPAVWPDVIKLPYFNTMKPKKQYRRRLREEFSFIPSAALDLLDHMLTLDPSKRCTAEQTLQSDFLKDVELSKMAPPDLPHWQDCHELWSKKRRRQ
T2 sequence (O75909 11-267 partner limits assumed): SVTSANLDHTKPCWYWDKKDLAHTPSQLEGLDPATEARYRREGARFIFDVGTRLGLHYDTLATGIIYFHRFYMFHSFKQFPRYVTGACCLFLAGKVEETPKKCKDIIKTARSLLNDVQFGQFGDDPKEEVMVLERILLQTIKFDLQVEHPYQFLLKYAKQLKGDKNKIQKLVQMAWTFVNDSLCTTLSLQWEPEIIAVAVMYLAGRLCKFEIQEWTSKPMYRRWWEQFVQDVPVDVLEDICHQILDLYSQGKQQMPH
Method: Finally, the capacity of small molecules to induce a ternary complex between CDK12/cyclin K and DDB1 in vitro was assessed by microscale thermophoresis (MST). Labeled DDB1ΔBPB was combined with purified CDK12/cyclin K, and fluorescence intensity was monitored with increasing compound concentrations.
Cell pellets were harvested 48 hours post infection via centrifugation and lysed in buffer A (50 mM Tris–HCl (pH 8.0), 200 mM NaCl, 10 mM imidazole, 0.5 mM tris(2-carboxyethyl) phosphine (TCEP)) supplemented with EDTA-free Pierce™ protease inhibitor tablet (Thermo Fisher Scientific). […] The concentrated protein at 2 mg mL^−1 was flash-frozen in liquid nitrogen and stored at −80 °C.
Full-length S. cerevisiae CAK1 (Uniprot: P43568) with an N-terminal His6 tag was subcloned into pFastBac 1 vector. […] The eluted CDK12/cyclin K complex was concentrated to 2 mg mL^−1, flash-frozen in liquid nitrogen and stored at −80 °C.
A protocol to assess ternary binding of molecular glues with CDK12/cycK and DDB1 by MST was established using published procedures for PROTAC interaction with bromodomains and E3 ubiquitin ligases.[38] His8-DDB1-ΔBPB was labeled with the MO-L018 Monolith™ His-tag Labeling Kit RED-tris-NTA 2nd Generation (NanoTemper Technologies) following the instruction manual. 100 nM dye was mixed with 200 nM DDB1 in 50 mM HEPES pH 7.5, 150 mM NaCl, 5% glycerol, 0.05% Tween, and incubated at room temperature for 30 min. […] MST traces were recorded using standard parameters: 5 s MST power off, 30 s MST power on and 5 s MST power off. Measurements were taken at −1 to 0 s (cold region) and 9–10 s (hot region). Data were analyzed using a fitting function derived from the law of mass action:1 [drawing 6] where f(c) is the fluorescence signal (Fnorm) at a given ligand concentration (c), B is Fnorm of fully liganded DDB1 at high ligand concentrations, U is Fnorm of DDB1 alone at low ligand concentrations, Kd is the dissociation constant or binding affinity, cT is the final concentration of DDB1 in the assay (Fig. 3G). For normalization, the data were first transformed using eqn (2) where y is the fraction bound, followed by fitting to eqn (3) (Fig. 5B–E).2 [drawing 7] 3 [drawing 8]

SMILES | retention time in analytical SEC (ternary complex formation) (Cdk12/CycK and DDB1ΔB) | cyclin K degradation (immunoblot) (cyclin K) | ability to induce ternary complex (CDK12/cyclin K + DDB1)
Cn1cc(-n2cnc3c(NCc4nc5cc(Cl)c(Cl)cc5[nH]4)nc(N4CCOCC4)nc32)cn1 [SR-4835] | reduced retention times | rapidly degrades cyclin K | 
CN(C)C/C=C/C(=O)Nc1ccc(C(=O)N2CCC[C@@H](Nc3ncc(Cl)c(-c4c[nH]c5ccccc45)n3)C2)cc1 [THZ531, reference compound] |  |  | inability to induce such a complex
